What was measured:
ADORA2A = target: T1, ADORA2A (Homo sapiens, UniProt P29274); assay: ADORA2A in vitro receptor assay, [3H]CGS-21680 radioligand binding; conditions: human recombinant HEK-293 cells, 0.05 μM [3H] CGS-21680
T1 construct: host or cells: HEK-293
Experimental: The methods employed in this study have been adapted from the scientific literature (Varani K, Gessi S, Dalpiaz A, Borea P A (1996) Br. J. Pharmacol. 117, 1693 Pharmacological and biochemical characterization of purified A2A adenosine receptors in human platelet membranes by [3H]CGS-21680 binding) to maximize reliability and reproducibility. Reference standards are run as an integral part of each assay to ensure the validity of the results obtained. Assays are performed under conditions described below. (assay number 200610, Ricerca Biosciences, LLC, Taipei, Taiwan). • Source: Human recombinant HEK-293 cells • Ligand: 0.05 μM [3H]

mature adult rat = assay: Social Recognition Test (SRT), in vivo; conditions: 3 mg/kg, same administration regime
Experimental: The method, which detects memory enhancing activity, follows that described by Lemaire et al. (Psychopharmacology, 115, 435-440, 1994). An unfamiliar juvenile rat was introduced into the individual home cage of a mature adult rat for 5 minutes. Following this first contact (C1), the juvenile was returned to its isolation cage, until a second contact of 5 minutes with the same mature adult rat (C2), 120 minutes later was allowed.
The time the adult rat spended investigating (sniffing, grooming, licking, closely following) the juvenile at each contact was recorded. A recognition index (=C2/C1) was calculated. Under such conditions, a mature adult rat fails to recognize the juvenile as familiar, as indicated by an absence of reduction in the duration of social investigatory behaviour at C2.
12 rats were studied per group (in total 3 groups, vehicle, test compound, positive control). The test was performed blind. The test compound (e.g. the extract according example 3) was evaluated at a dose of 1 g/kg administered p.o. immediately after Cl (i.e. 120 minutes before C2), and compared with a vehicle control group. The test substance was dispersed in 4% Cremophor El, (polyoxyethylated castor oil, BASF, Ludwigshafen, Germany) in physiological saline which served as the vehicle. […] Data were analyzed by comparing treated groups with appropriate control using unpaired Student's t tests. […]

T1 sequence (P29274 whole entry): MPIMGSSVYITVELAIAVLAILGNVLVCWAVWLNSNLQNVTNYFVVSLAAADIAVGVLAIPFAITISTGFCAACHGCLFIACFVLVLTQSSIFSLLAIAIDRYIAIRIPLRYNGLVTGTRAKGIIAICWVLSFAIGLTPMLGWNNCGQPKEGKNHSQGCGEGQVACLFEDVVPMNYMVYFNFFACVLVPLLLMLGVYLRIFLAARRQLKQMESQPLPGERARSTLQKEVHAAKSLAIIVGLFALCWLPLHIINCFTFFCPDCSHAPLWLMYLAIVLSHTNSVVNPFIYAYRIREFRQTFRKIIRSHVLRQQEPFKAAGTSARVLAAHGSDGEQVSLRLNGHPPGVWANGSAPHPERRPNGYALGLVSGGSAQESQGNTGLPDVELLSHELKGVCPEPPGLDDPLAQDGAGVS

inhibition at 10 µM (ADORA2A) [%] | SMILES | effect of the positive control (presumably on the Recognition Index) (mature adult rat) [%]
42 | C=C[C@@]1(C)CC(=O)[C@H]2[C@](O)(C1=O)[C@H](OC(C)=O)C[C@H]1C(C)(C)[C@H](OC(=O)c3ccccc3)[C@H](OC(C)=O)[C@H](OC(=O)c3ccccc3)[C@@]12C [[6], Orthosiphonone A] | 
52 | C=C[C@@]1(C)C[C@@H](OC(=O)c2ccccc2)[C@@H]2[C@@]3(C)C=C(OC(C)=O)C(=O)C(C)(C)[C@@H]3C[C@@H](OC(C)=O)[C@@]2(O)C1=O [[5], Orthosiphol D] | 
42 | C=CC1C(OC(=O)c2ccccc2)C2C(O)(C(=O)C1(C)O)C(OC(C)=O)CC1C(C)(C)C(OC(C)=O)C(OC(C)=O)C(OC(=O)c3ccccc3)C12C (stereo not drawn) [[8], Staminol A] | 
64 | C=CC1C(OC(=O)c2ccccc2)C2C(O)(C(=O)C1(C)O)C(OC(C)=O)CC1C(C)(C)C(O)C(OC(C)=O)C(OC(=O)c3ccccc3)C12C (stereo not drawn) [[7], Neoorthosiphol A] | 
42 | C=C[C@@]1(C)C[C@@H](OC(=O)c2ccccc2)[C@H]2[C@](O)(C1=O)[C@H](OC(C)=O)C[C@H]1C(C)(C)[C@H](O)[C@H](OC(C)=O)[C@H](OC(=O)c3ccccc3)[C@@]12C [[4], Orthosiphol A] | 
 | COc1cc2c(cc1OC)C(=O)C(CC1CCN(Cc3ccccc3)CC1)C2 (stereo not drawn) [Donepezil] | −28

Source: US20110151033A1, “ORTHOSIPHON STAMINEUS EXTRACTS FOR USE AS A COGNITION ENHANCER” (BIOTROPICS MALAYSIA BHD, priority 2009, published 2011)
